From patent US8278032B2, “Transporter protein in mammal and utilization of the same” (priority 2005, dated 2012)
Read-outs that look alike come from different tables or passages of the source.

Experiments:
[1] = molecular target: T1, hMATE1 (Homo sapiens, UniProt Q96FL8); assay: Inhibition of RI-labeled TEA uptake in HEK293 cells expressing hMATE1; conditions: for TEA uptake activity percent taking the level with addition of no compound as 100% (% ± S.D.): 50 μM RI-labeled TEA, pH 8.0, HEK293 cells expressing hMATE1; for Inhibition of TEA uptake activity (in words, summary of Table 1): MATE1 expressing HEK293 cells, 50 μM TEA, pH 8.0; for Effect on TEA uptake activity (in words): valinomycin 5 μM with 65 mM potassium chloride, nigericin 5 μM with potassium chloride, SF6847 10 μM
T1 sequence (Q96FL8 1-570): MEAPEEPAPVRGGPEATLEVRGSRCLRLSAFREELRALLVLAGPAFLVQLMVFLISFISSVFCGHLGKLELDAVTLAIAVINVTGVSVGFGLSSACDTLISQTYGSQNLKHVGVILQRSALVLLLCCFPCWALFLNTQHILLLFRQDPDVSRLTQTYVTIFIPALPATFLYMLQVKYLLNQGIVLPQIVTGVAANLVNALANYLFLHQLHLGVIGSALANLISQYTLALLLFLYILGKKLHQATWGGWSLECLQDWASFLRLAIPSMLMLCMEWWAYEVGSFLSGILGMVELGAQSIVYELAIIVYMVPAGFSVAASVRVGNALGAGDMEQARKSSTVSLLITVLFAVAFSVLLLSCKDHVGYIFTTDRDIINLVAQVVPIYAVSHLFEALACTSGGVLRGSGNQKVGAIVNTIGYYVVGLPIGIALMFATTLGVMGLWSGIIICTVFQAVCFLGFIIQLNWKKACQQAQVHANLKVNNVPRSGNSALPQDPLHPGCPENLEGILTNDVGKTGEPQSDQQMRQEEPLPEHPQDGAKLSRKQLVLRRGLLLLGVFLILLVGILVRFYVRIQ

[2] = molecular target: T2, mMATE1 (Mus musculus, UniProt Q8K0H1); assay: Inhibition of RI-labeled TEA uptake in HEK293 cells expressing mMATE1; format: cell-based; conditions: for remaining activity at 5000 µM: compound 5 mM;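 on all read-outs here: transfected HEK293 cells held 5 min at 37 °C before tracer addition, uptake read as radioactivity retained on a 0.45-µm membrane filter, mean ± SD of three to nine experiments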
T2 construct: expressed in transfected cells; host or cells: HEK293
T2 sequence (Q8K0H1 with tags, fused parts or gaps): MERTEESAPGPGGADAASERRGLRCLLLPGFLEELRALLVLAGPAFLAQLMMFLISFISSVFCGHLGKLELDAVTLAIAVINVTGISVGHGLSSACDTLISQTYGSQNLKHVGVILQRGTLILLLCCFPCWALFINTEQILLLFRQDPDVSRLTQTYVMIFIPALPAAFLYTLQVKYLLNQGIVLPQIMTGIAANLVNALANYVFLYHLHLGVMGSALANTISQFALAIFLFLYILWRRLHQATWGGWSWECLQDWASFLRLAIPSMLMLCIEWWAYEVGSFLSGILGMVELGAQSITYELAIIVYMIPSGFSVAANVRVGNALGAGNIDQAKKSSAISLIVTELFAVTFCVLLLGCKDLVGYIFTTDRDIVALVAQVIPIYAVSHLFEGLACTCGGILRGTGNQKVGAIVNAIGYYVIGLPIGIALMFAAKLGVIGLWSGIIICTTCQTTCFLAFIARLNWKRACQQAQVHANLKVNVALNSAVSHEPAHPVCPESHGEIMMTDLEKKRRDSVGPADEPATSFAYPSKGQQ

[3] = 50 μM RI-labeled TEA, pH 8.0, HEK293 cells expressing mMATE1, read-out: TEA uptake activity percent taking the level with addition of no compound as 100% (% ± S.D.)
[4] = compound 0.1 mM, 50 μM RI-labeled TEA, pH 8.0, HEK293 cells expressing mMATE1, read-out: TEA uptake activity percent taking the level with addition of no compound as 100% (% ± S.D.)
[5] = HEK293 cells expressing human MATE1, FIG. 9(e)

NC12CC3CC(CC(C3)C1)C2 [Amantadine]
TEA uptake activity percent taking the level with addition of no compound as 100% (% ± S.D.) ([1]; compound 0.1 mM): 75.5 ± 9.8%

C[C@]12CCC(=O)C=C1CC[C@@H]1[C@@H]2CC[C@]2(C)C(=O)CC[C@@H]12 [Androstenedione]
remaining activity at 100 µM ([2]; HEK293, pH 8, read-out: TEA uptake activity percent taking the level with addition of no compound as 100% (% ± S.D.)): 8.6 ± 1.7%
TEA uptake activity percent taking the level with addition of no compound as 100% (% ± S.D.) ([1]; compound 0.1 mM): 36.6 ± 0.9%

CN1[C@@H]2CC[C@H]1C[C@@H](OC(=O)C(CO)c1ccccc1)C2 (stereo partly drawn) [Atropine]
TEA uptake activity percent taking the level with addition of no compound as 100% (% ± S.D.) ([1]; compound 0.1 mM): 74.6 ± 5.5%

COc1ccc2cc3[n+](cc2c1OC)CCc1cc2c(cc1-3)OCO2 [Berberin]
TEA uptake activity percent taking the level with addition of no compound as 100% (% ± S.D.) ([1]; compound 0.001 mM): 69.2 ± 2.1%
TEA uptake activity percent taking the level with addition of no compound as 100% (% ± S.D.) ([1]; compound 0.01 mM): 20.4 ± 2.4%
TEA uptake activity percent taking the level with addition of no compound as 100% (% ± S.D.) ([1]; compound 0.1 mM): 4.2 ± 0.9%

CC(C)(c1ccc(O)cc1)c1ccc(O)cc1 [Bisphenol A]
TEA uptake activity percent taking the level with addition of no compound as 100% (% ± S.D.) ([1]; compound 0.01 mM): 113.9 ± 2.1%

C[N+](C)(C)CC(O)CC(=O)[O-] (stereo not drawn) [Carnitine]
remaining activity at 5000 µM [2, 3]: 71.2 ± 6.1%
TEA uptake activity percent taking the level with addition of no compound as 100% (% ± S.D.) ([1]; compound 5 mM): 104.2 ± 6.4%

CN(C)CCCN1c2ccccc2Sc2ccc(Cl)cc21 [Chlorpromazine]
TEA uptake activity percent taking the level with addition of no compound as 100% (% ± S.D.) ([1]; compound 0.1 mM): 12.2 ± 3.6%

C[N+](C)(C)CCO [Choline]
remaining activity at 5000 µM [2, 3]: 62 ± 8.8%
TEA uptake activity percent taking the level with addition of no compound as 100% (% ± S.D.) ([1]; compound 5 mM): 62.7 ± 4.1%

CN/C(=N/CCSCc1nc[nH]c1C)NC#N [Cimetidine]
remaining activity at 10 µM ([2]; compound 0.01 mM, 50 μM RI-labeled TEA, pH 8.0, HEK293 cells expressing mMATE1, read-out: TEA uptake activity percent taking the level with addition of no compound as 100% (% ± S.D.)): 29.3 ± 5.2%
remaining activity at 100 µM [2, 4]: 3.1 ± 5.1%
Inhibition of TEA uptake activity (in words, summary of Table 1) [1]: strongly inhibited
TEA uptake activity percent taking the level with addition of no compound as 100% (% ± S.D.) ([1]; compound 0.01 mM): 44.7 ± 7.4%
TEA uptake activity percent taking the level with addition of no compound as 100% (% ± S.D.) ([1]; compound 0.1 mM): 9.7 ± 8.7%

N.N.[Cl][Pt][Cl] [Cisplatin]
TEA uptake activity percent taking the level with addition of no compound as 100% (% ± S.D.) ([1]; compound 1 mM): 35.6 ± 6.0%

C[C@]12C[C@H](O)[C@H]3[C@@H](CCC4=CC(=O)CC[C@@]43C)[C@@H]1CC[C@@H]2C(=O)CO [Corticosterone]
remaining activity at 100 µM [2, 4]: 50 ± 2.5%
Inhibition of TEA uptake activity (in words, summary of Table 1) [1]: inhibited
TEA uptake activity percent taking the level with addition of no compound as 100% (% ± S.D.) ([1]; compound 0.1 mM): 10.0 ± 6.7%

CC/C(=C(/CC)c1ccc(O)cc1)c1ccc(O)cc1 [Diethylstilbestrol]
TEA uptake activity percent taking the level with addition of no compound as 100% (% ± S.D.) ([1]; compound 0.1 mM): 94.9 ± 7.8%

C[C@H]1O[C@@H](O[C@H]2[C@@H](O)C[C@H](O[C@H]3[C@@H](O)C[C@H](O[C@H]4CC[C@@]5(C)[C@H](CC[C@@H]6[C@@H]5C[C@@H](O)[C@]5(C)[C@@H](C7=CC(=O)OC7)CC[C@]65O)C4)O[C@@H]3C)O[C@@H]2C)C[C@H](O)[C@@H]1O [Digoxin]
TEA uptake activity percent taking the level with addition of no compound as 100% (% ± S.D.) ([1]; compound 0.001 mM): 102.5 ± 7.3%

O=C(CCCN1CC=C(n2c(=O)[nH]c3ccccc32)CC1)c1ccc(F)cc1 [Droperidol]
TEA uptake activity percent taking the level with addition of no compound as 100% (% ± S.D.) ([1]; compound 0.001 mM): 74.1 ± 14.7%

CN(C)C(=N)N=C(N)N [Metformin]
TEA uptake activity percent taking the level with addition of no compound as 100% (% ± S.D.) ([1]; compound 0.1 mM): 120.5 ± 9.4%

C[C@@H]1O[C@@H](O[C@H]2C[C@@H](O)[C@]3(CO)[C@H]4[C@H](O)C[C@]5(C)[C@@H](C6=CC(=O)OC6)CC[C@]5(O)[C@@H]4CC[C@]3(O)C2)[C@H](O)[C@H](O)[C@H]1O [Ouabain]
TEA uptake activity percent taking the level with addition of no compound as 100% (% ± S.D.) ([1]; compound 0.01 mM): 115.9 ± 6.6%

COc1ccc(Cc2nccc3cc(OC)c(OC)cc23)cc1OC [Papaverine]
TEA uptake activity percent taking the level with addition of no compound as 100% (% ± S.D.) ([1]; compound 0.01 mM): 26.8 ± 2.7%

C[n+]1ccc(-c2cc[n+](C)cc2)cc1 [Paraquat]
TEA uptake activity percent taking the level with addition of no compound as 100% (% ± S.D.) ([1]; compound 1 mM): 57.2 ± 6.8%

CC[C@@H]1C(=O)OC[C@@H]1Cc1cncn1C [Pilocarpine]
TEA uptake activity percent taking the level with addition of no compound as 100% (% ± S.D.) ([1]; compound 0.1 mM): 96.1 ± 0.4%

CC(C)NCC(O)COc1cccc2ccccc12 (stereo not drawn) [Propranolol]
TEA uptake activity percent taking the level with addition of no compound as 100% (% ± S.D.) ([1]; compound 0.1 mM): 30.1 ± 3.9%

CCc1nc(N)nc(N)c1-c1ccc(Cl)cc1 [Pyrimethamine]
TEA uptake activity percent taking the level with addition of no compound as 100% (% ± S.D.) ([1]; compound 0.00001 mM): 45.2 ± 3.5%
TEA uptake activity percent taking the level with addition of no compound as 100% (% ± S.D.) ([1]; compound 0.0001 mM): 19.8 ± 1.6%

CCN(CC)CCCC(C)Nc1c2ccc(Cl)cc2nc2ccc(OC)cc12 (stereo not drawn) [Quinacrine]
TEA uptake activity percent taking the level with addition of no compound as 100% (% ± S.D.) ([1]; compound 0.01 mM): 41.6 ± 8.2%

C=C[C@H]1C[N@@]2CC[C@H]1C[C@H]2[C@H](O)c1ccnc2ccc(OC)cc12 [Quinine]
TEA uptake activity percent taking the level with addition of no compound as 100% (% ± S.D.) ([1]; compound 0.01 mM): 30.4 ± 2.8%

COC(=O)[C@H]1[C@H]2C[C@@H]3c4[nH]c5cc(OC)ccc5c4CCN3C[C@H]2C[C@@H](OC(=O)c2cc(OC)c(OC)c(OC)c2)[C@@H]1OC [Reserpine]
TEA uptake activity percent taking the level with addition of no compound as 100% (% ± S.D.) ([1]; compound 0.001 mM): 86.3 ± 3.5%
TEA uptake activity percent taking the level with addition of no compound as 100% (% ± S.D.) ([1]; compound 0.01 mM): 22.8 ± 0.9%

C[C@@H]1O[C@@H](OC[C@H]2O[C@@H](Oc3c(-c4ccc(O)c(O)c4)oc4cc(O)cc(O)c4c3=O)[C@H](O)[C@@H](O)[C@@H]2O)[C@H](O)[C@H](O)[C@H]1O [Rutin]
TEA uptake activity percent taking the level with addition of no compound as 100% (% ± S.D.) ([1]; compound 0.1 mM): 71.8 ± 3.6%

CC(C)(C)c1cc(C=C(C#N)C#N)cc(C(C)(C)C)c1O [SF6847]
Effect on TEA uptake activity (in words) [1, 5]: greatly decreased

NCCc1c[nH]c2ccc(O)cc12 [Serotonin]
TEA uptake activity percent taking the level with addition of no compound as 100% (% ± S.D.) ([1]; compound 0.1 mM): 67.5 ± 8.0%

NCCCCNCCCN [Spermidine]
TEA uptake activity percent taking the level with addition of no compound as 100% (% ± S.D.) ([1]; compound 0.05 mM): 97.0 ± 11.4%

Cc1ncc(C[n+]2csc(CCO)c2C)c(N)n1 [Thiamine]
TEA uptake activity percent taking the level with addition of no compound as 100% (% ± S.D.) ([1]; compound 0.1 mM): 55.7 ± 7.0%
TEA uptake activity percent taking the level with addition of no compound as 100% (% ± S.D.) ([1]; compound 1 mM): 31.1 ± 3.9%

N[C@@H](Cc1cc(I)c(Oc2cc(I)c(O)c(I)c2)c(I)c1)C(=O)O [Thyroxine]
TEA uptake activity percent taking the level with addition of no compound as 100% (% ± S.D.) ([1]; compound 0.1 mM): 113.0 ± 4.5%

Cl.N [ammonium chloride]
TEA uptake activity inhibited by ([1]; HEK293 cells expressing human MATE1, FIG. 9(e), concentration not given): 60%

C[C@]12CC[C@@H](O)C[C@@H]1CC[C@@H]1[C@@H]2CC[C@]2(C)C(=O)CC[C@@H]12 [androsterone]
Inhibition of TEA uptake activity (in words, summary of Table 1) [1]: inhibited

CO[C@@H]1C[C@@H](C[C@H]2CC[C@H](C)[C@H]([C@@H](C)C(=O)O)O2)O[C@]2(O[C@](C)([C@H]3CC[C@@](C)([C@@H]4O[C@@H]([C@H]5O[C@@](O)(CO)[C@H](C)C[C@@H]5C)C[C@@H]4C)O3)C[C@H]2C)[C@@H]1C [nigericin]
Effect on TEA uptake activity (in words) [1, 5]: greatly decreased

CC(C)[C@@H]1NC(=O)[C@H](C)OC(=O)[C@@H](C(C)C)NC(=O)[C@@H](C(C)C)OC(=O)[C@H](C(C)C)NC(=O)[C@H](C)OC(=O)[C@@H](C(C)C)NC(=O)[C@@H](C(C)C)OC(=O)[C@H](C(C)C)NC(=O)[C@H](C)OC(=O)[C@@H](C(C)C)NC(=O)[C@@H](C(C)C)OC1=O [valinomycin]
Effect on TEA uptake activity (in words) [1, 5]: not affected

Catechin
TEA uptake activity percent taking the level with addition of no compound as 100% (% ± S.D.) ([1]; compound 0.1 mM): 104.0 ± 4.4%

Tocopherol
TEA uptake activity percent taking the level with addition of no compound as 100% (% ± S.D.) ([1]; compound 0.1 mM): 78.8 ± 9.6%

para-aminobutyric acid
Inhibition of TEA uptake activity (in words, summary of Table 1) [1]: not inhibited
